Columns and labels:
Type in all cases: physicochemical
[1] = GVS sorption-desorption isotherms; conditions: for water content at starting conditions (GVS): 40% RH and 25° C.; for additional water taken up (GVS): RH increased to 90%; for crystalline form by XRPD after GVS: after sorption/desorption cycle(s); for total water content (GVS): at 90% RH; for water taken up (GVS): between 0% and 60% RH (Form 1: at 60% RH)
Description: Sorption isotherms were obtained using a SMS DVS Intrinsic moisture sorption analyser, controlled by DVS Intrinsic Control software. The sample temperature was maintained at 25° C. by the instrument controls. The humidity was controlled by mixing streams of dry and wet nitrogen, with a total flow rate of 200 ml/min. The relative humidity was measured by a calibrated Rotronic probe (dynamic range of 1.0-100% RH), located near the sample. The weight change, (mass relaxation) of the sample as a function of % RH was constantly monitored by a microbalance (accuracy±0.005 mg). Typically, 5-30 mg of sample was placed in a tared mesh stainless steel basket under ambient conditions. The sample was loaded and unloaded at 40% RH and 25° C. (typical room conditions). A moisture sorption isotherm was performed as outlined below (2 scans per complete cycle). The standard isotherm was performed at 25° C. at 10% RH intervals over a 0-90% RH range. Typically, a double cycle (4 scans) was carried out. Data analysis was carried out within Microsoft Excel using the DVS Analysis Suite. Samples of Example 1 (Form 1) and Example 3 (Form 3) were analysed for their sorption-desorption isotherms by GVS. […] The sample contained approximately 8% w/w water at the starting conditions of 40% RH and 25° C. […] Therefore, the second sorption profile seen in FIG. 18A is that of Form 3. […] The sample contained approximately 3-4% w/w water at the starting conditions of 40% RH and 25° C. […] A significant uptake of moisture occurred in the first sorption cycle between 60 and 70% RH equivalent to approximately 5% w/w.

[2] = KF water content of stability samples; conditions: for KF water content: Duma bottles without desiccant
Description: The water content of each sample was measured on a Metrohm 874 Oven Sample Processor at 150° C. with 851 Titrano Coulometer using Hydranal Coulomat AG oven reagent and nitrogen purge. Weighed solid samples were introduced into a sealed sample vial. Approximately 10 mg of sample was used per titration and duplicate determinations were made. […] Data collection and analysis were performed using Tiamo software.
The water content of samples of Form 1 (batch ref. LS19-0004-3-8002), Form 3 prepared by minimally-agitated drying ([…]; batch ref. 491-PAL-18) and Form 3 prepared by continuously-agitated filter drying (Example 5B trial 5; batch ref. 00173-005) was analysed by KF at the start of the stability study (initial) and after 2, 4 and 8 weeks storage in 60 ml Duma® bottles fitted with 45 mm Duma® caps (without desiccant) at 25° C./60% RH—see Table 16;
In a separate study, samples of Form 3 (Example 5.3; batch ref. 491-PAL-18) having an initial water content by KF of 2.3% w/w were tested for water content at various time points after storage double bagged in a HDPE bottle under various conditions as shown in Table 17.

[3] = Chemical stability in biorelevant media
Description: Samples of Form 1 (batch ref […]-0004-S-8002) and Form 3 (Example 5.4.1 (batch ref. 491PAL22; A-19-0132)) in 0.1 M HCl and FaSSIF media (1.2 mg/ml) were stored at ambient and 37° C. for up to 7 days. Chemical stability was assessed by determining the concentration of parent compound by HPLC on days 0, 3 and 7 in triplicate.

[4] = Typical water content of the crystalline forms
Description: The water content of a sample can be determined by any suitable means as will be apparent to one of skill in the art. In one embodiment, the water content is determined by Karl-Fischer titration. In one embodiment, the water content is determined by thermogravimetric analysis (TGA). In one embodiment, the water content is determined by gravimetric vapour sorption (GVS). After formation of the crystalline complex according to the invention, the water content may be as low as 1-3% w/w. However, after exposure of the complex to ambient conditions (25° C., 40% RH) the material typically equilibrates (e.g. over a period of 3-7 days) to a water content of up to 5-7% w/w. It has been found, however, that Form 3, once equilibrated to 5-7% w/w water, maintains physical form at 60% RH making it unexpectedly stable over the 0% and 60% humidity range.

[5] = Equilibrium solubility in biorelevant media (shake flask); parameters: Equilibrium solubility, Mean Conc: unit not given here; conditions: for equilibrium solubility in words: 0.1 M HCl and FaSSIF media; for Equilibrium solubility, Mean Conc: 37° C.
Description: The equilibrium solubility of samples of Form 1 (batch ref […]-0004-S-8002) and Form 3 (Example 5.4.1 (batch ref, 491PAL22; A-19-0132)) in 0.1M HCl and FaSSIF media at 37° C. was carried out using the shake flask method. Samples were taken at 4 hours and 24 hours and centrifuged for 5 minutes at 15,000 rpm. The supernatant was removed and diluted with appropriate solvent prior to HPLC analysis of the parent concentrations.

[6] = 0.1M HCl, ambient, Day 0, 1.2 mg/ml nominal, Form 3 = Example 5.4.1
[7] = 0.1M HCl, 4 Hours, Form 3 = Example 5.4.1
[8] = FaSSIF, 4 Hours, atypical HPLC data and variable results
[9] = FaSSIF, 24 Hours, atypical HPLC data and variable results

Row | Compound | water content at starting conditions (GVS) [1] | additional water taken up (GVS) ([1]; 25° C.) | crystalline form by XRPD after GVS [1] | total water content (GVS) ([1]; 25° C.) [% w/w] | water taken up (GVS) [1] | Mean Conc of parent ([3]; 0.1M HCl, 37° C., Day 0) [µg/mL] | Mean Conc of parent ([3]; 0.1M HCl, 37° C., Day 3) [µg/mL] | Mean Conc of parent ([3]; 0.1M HCl, 37° C., Day 7) [µg/mL] | Mean Conc of parent [3, 6] [µg/mL] | Mean Conc of parent ([3]; 0.1M HCl, ambient, Day 3) [µg/mL] | Mean Conc of parent ([3]; 0.1M HCl, ambient, Day 7) [µg/mL] | Mean Conc of parent ([3]; FaSSIF, 37° C., Day 0) [µg/mL] | Mean Conc of parent ([3]; FaSSIF, 37° C., Day 3) [µg/mL] | Mean Conc of parent ([3]; FaSSIF, 37° C., Day 7) [µg/mL] | Mean Conc of parent ([3]; FaSSIF, ambient, Day 0) [µg/mL] | Mean Conc of parent ([3]; FaSSIF, ambient, Day 3) [µg/mL] | Mean Conc of parent ([3]; FaSSIF, ambient, Day 7) [µg/mL] | equilibrium solubility in words [5] | Equilibrium solubility, Mean Conc [5, 7] | Equilibrium solubility, Mean Conc ([5]; 0.1M HCl, 24 Hours) | further results
1 | C[S+]([O-])CCCCN=C=S.OCC1OC2OC3C(CO)OC(OC4C(CO)OC(OC5C(CO)OC(OC6C(CO)OC(OC7C(CO)OC(OC1C(O)C2O)C(O)C7O)C(O)C6O)C(O)C5O)C(O)C4O)C(O)C3O (centres unmarked) [Form 1] | approximately 8 % w/w | 4-5 % w/w | had converted to Form 3 | 12.9 | 8-9 % w/w | 1180 | 1060 | 1050 | 1220 | 1090 | 1050 | 1180 | 920 | 940 | 1160 | 960 | 900 | high and comparable | 632 | 2605 | hysteresis (GVS) ([1]; 25° C.): Significant hysteresis existed between 70% and 30% RH; KF water content ([2]; 2 weeks, 25° C./60% RH): 8.4 % w/w; KF water content ([2]; 4 weeks, 25° C./60% RH): 6.5 % w/w; KF water content ([2]; 8 weeks, 25° C./60% RH): 11.1 % w/w; KF water content ([2]; Initial, 25° C./60% RH study): 8.6 % w/w; Typical water content [4]: 8-15 % w/w; Equilibrium solubility, Mean Conc [5, 8]: 271; Equilibrium solubility, Mean Conc [5, 9]: 247
2 | C[S+]([O-])CCCCN=C=S.OC[C@H]1O[C@@H]2O[C@H]3[C@H](O)[C@@H](O)[C@@H](O[C@H]4[C@H](O)[C@@H](O)[C@@H](O[C@H]5[C@H](O)[C@@H](O)[C@@H](O[C@H]6[C@H](O)[C@@H](O)[C@@H](O[C@H]7[C@H](O)[C@@H](O)[C@@H](O[C@H]1[C@H](O)[C@H]2O)O[C@@H]7CO)O[C@@H]6CO)O[C@@H]5CO)O[C@@H]4CO)O[C@@H]3CO [Form 3] | 3-4 % w/w | 7-8 % w/w | remains as Form 3 | 11.1 | about 4 % w/w | 1050 | 940 | 920 | 1080 | 940 | 1010 | 1010 | 800 | 780 | 1000 | 810 | 930 | high and comparable | 733 | 3057 | uptake of moisture in the first sorption cycle (GVS) ([1]; between 60 and 70% RH): approximately 5 % w/w; water content on extended exposure to high humidity ([2]; up to 6 months): does not increase significantly above about 5-6% w/w; water content after equilibration at ambient conditions ([4]; exposure to ambient conditions (25° C., 40% RH), e.g. 3-7 days): 5-7 % w/w; Equilibrium solubility, Mean Conc [5, 8]: 264; Equilibrium solubility, Mean Conc [5, 9]: 221
